The test system of data set [1] is Protein synthesis in B16-F10 melanoma cells. Nature of the data set: Inhibition of macromolecule synthesis: protein (3H-leucine incorporation). The data set is classed as cell-based, murine. The following applies: Mus musculus, 4 hours + 60 minutes label, read-out: IC₅₀ Protein.
Procedure: (§2) B16-F10 cells (10⁵ cells/ml) were incubated with test materials at 37°C for 4.5 hours (for DNA synthesis) or 4 hours (for RNA and protein syntheses). Labelled precursor, ³H-thymidine, ¹⁴C-uridine or ³H-leucine was added to the culture and further incubated for 30 minutes (for DNA) or 60 minutes (for RNA and protein). After washing with chilled 5% trichloroacetic acid solution, the radioactivity incorporated into the acid-insoluble fraction of the tumor cells was determined by a liquid scintillation counter. Actinomycin D was used as a reference compound.
Data set [2] deals with DNA synthesis in B16-F10 melanoma cells. Nature of the data set: Inhibition of macromolecule synthesis: DNA (3H-thymidine incorporation). The conditions noted are these: Mus musculus, 4.5 hours + 30 minutes label, read-out: IC₅₀ DNA. The class given is cell-based, murine. In general terms: Dividing cells build labelled thymidine or BrdU into new DNA.
Procedure: as §2
The test system of data set [3] is RNA synthesis in B16-F10 melanoma cells. Nature of the data set: Inhibition of macromolecule synthesis: RNA (14C-uridine incorporation). The data set is classed as cell-based, murine. The following applies: Mus musculus, 4 hours + 60 minutes label, read-out: IC₅₀ RNA.
Procedure: as §2
In a further data set the test system is platelet aggregation. The following applies: Fujioka, et al, J. Org. Chem. 53, 2820 (1988); cited from earlier work.
For data set [4] the following is noted: Fujioka, et al, J. Org. Chem. 53, 2820 (1988); cited from earlier work.
For data set [5], the system named is Gram-positive microorganisms. The following applies: Maehr, et al, J. Antibiotics, 39, 17 (1986); cited from earlier work.
For a further data set, the system named is P388 leukemia. The data set can be described thus: In vivo antitumor activity in tumor-bearing mice, P388 leukemia (ip). The following applies: P388 leukemia ip, CDF₁ mice, Q1D x 1; for T/C: significant if T/C ≧ 125%. As for the experimental part: (§1) In vivo antitumor activity of BU-3983T was examined using tumor-bearing mice. Male BDF₁ mice were intraperitoneally inoculated with 0.5 ml of 10% melanotic melanoma B16 brei, and female CDF₁ mice were intraperitoneally inoculated with 0.4 ml of diluted ascitic fluid containing 10⁶ lymphocytic leukemia P388 cells or 10⁵ lymphoid leukemia L1210 cells. Mitomycin C was used as a reference compound. Test compounds were intraperitoneally administered to the mice by the following treatment schedules: once a day on day 1 only (Q1D x 1), on days 1, 5 and 9 (Q4D x 3) or on days 1 to 9 (Q1D x 9). […]

The test system of the next data set is L1210 leukemia. The data set can be described thus: In vivo antitumor activity in tumor-bearing mice, L1210 leukemia (ip). The following applies: L1210 leukemia ip, CDF₁ mice, Q1D x 1; for T/C: significant if T/C ≧ 125%. As for the experimental part: as §1
Another data set concerns B16 melanoma. Nature of the data set: In vivo antitumor activity in tumor-bearing mice, B16 melanoma (ip). The following applies: B16 melanoma ip, BDF₁ mice, Q4D x 3; for T/C: significant if T/C ≧ 125%. As for the experimental part: as §1
For a further data set, the system named is Gram-positive organism. The conditions noted are these: Sheehan et al, J. Am. Chem. Soc., 90, 462 (1968); cited from earlier work.
A further data set deals with Gram-negative bacteria. The conditions noted are these: Sheehan et al, J. Am. Chem. Soc., 90, 462 (1968); cited from earlier work.

Numbered stars: 1 amine (or outer) side, 2 acyl side, 3 side chain; on linkers, the order of the positions; unused ones are H or OH. Bridge positions count the residues as written; N and C are the ends. Square brackets hold non-standard residues; d marks the D form. Peptide text beside a SMILES is read from it. I, II: the chains in the order shown. * marks the point of attachment. Actinocin(9to1) = Cc1c2oc3c(C)ccc(C(=O)[*:1])c3nc-2c(C(=O)[*:2])c(N)c1=O; Leu(3R-OH,Nα-propionyl) = CCC(=O)N[C@H](C(=O)*)[C@H](O)C(C)C; X1 = CC(C)[C@@H](O[*:3])[C@H](N[*:1])C(=O)[*:2]; NMeT = CN[C@H](C(=O)O)[C@@H](C)O; dPhLac = O=C(O)[C@H](O)Cc1ccccc1; NMeV = CN[C@H](C(=O)O)C(C)C; NMeA = CN[C@@H](C)C(=O)O; NMeDha = C=C(NC)C(=O)O; Sar = CNCC(=O)O

As usually defined, the T/C is the ratio of treated to control.

`Cc1c2oc3c(C)ccc(C(=O)N[C@@H]4C(=O)N[C@H](C(C)C)C(=O)N5CCC[C@H]5C(=O)N(C)CC(=O)N(C)[C@@H](C(C)C)C(=O)O[C@@H]4C)c3nc-2c(C(=O)N[C@@H]2C(=O)N[C@H](C(C)C)C(=O)N3CCC[C@H]3C(=O)N(C)CC(=O)N(C)[C@@H](C(C)C)C(=O)O[C@@H]2C)c(N)c1=O` [Actinomycin D, reference compound] (I: T[dV]P[Sar][NMeV] / II: T[dV]P[Sar][NMeV]; ester I:1-I:C, II:1-II:C; linker I:N-II:N via Actinocin(9to1)): the IC50 was > 30 µg/mL in [1], 1.3 µg/mL in data set [2] and 0.07 µg/mL in [3].
As for `C=C1C(=O)N[C@@H](C)C(=O)N(C)[C@@H](C)C(=O)N[C@@H]([C@H](OC(=O)[C@@H](NC(=O)CC)[C@H](O)C(C)C)C(C)C)C(=O)N(C)[C@@H]([C@@H](C)OC)C(=O)O[C@H](C(C)C)[C@H](NC(C)=O)C(=O)O[C@H](Cc2ccccc2)C(=O)N1C` [FR900359] (Ac-[X1][dPhLac][NMeDha]A[NMeA][X1](Leu(3R-OH,Nα-propionyl))[NMeT](Me); ester 1-C), the “inhibition of platelet aggregation” value in the data set with platelet aggregation was “inhibition of platelet aggregation”. Further, the “decrease of blood pressure” value in data set [4] is “decrease of blood pressure”.
`C/C=C(\C)C(=O)[C@@H](/C=C(\C)[C@@H]1O[C@@](O)([C@](O)(CC)C(=O)N[C@@H]2C(=O)N3NCCC[C@H]3C(=O)N(O)[C@H](COC)C(=O)N(C)[C@H](C)C(=O)N3NCCC[C@@H]3C(=O)N[C@@H]([C@H](C)O)C(=O)O[C@@H]2C(C)C)CC[C@H]1C)CC` [azinothricin]: in data set [5], the “activity against Gram-positive microorganisms” value is “primarily active”.
Regarding `CO[C@@]12[C@H](COC(N)=O)C3=C(C(=O)C(C)=C(N)C3=O)N1C[C@@H]1N[C@@H]12` [Mitomycin C, reference compound], the “Body weight change on day 4” value in the data set with P388 leukemia (0.25 mg/kg/day ip) was “+1.0 g”; with P388 leukemia (0.5 mg/kg/day ip), “+1.5 g”; in the data set on P388 leukemia (1 mg/kg/day ip) it was “+2.0 g”; with P388 leukemia (2 mg/kg/day ip) it was “+0.5 g”; with P388 leukemia (4 mg/kg/day ip) it was -0.8 g; in the data set on L1210 leukemia (0.5 mg/kg/day ip), “+1.5 g”. The “Body weight change on day 4” value in the data set with L1210 leukemia (1 mg/kg/day ip) is listed as “+1.5 g”; with L1210 leukemia (2 mg/kg/day ip) it was “+1.0 g”; in the data set on L1210 leukemia (4 mg/kg/day ip), “+0.5 g”; in the data set on L1210 leukemia (8 mg/kg/day ip), -0.3 g. For the same compound, the “MST (Median survival time)” value in the data set on P388 leukemia (0.25 mg/kg/day ip) came out at 11.5 days; in the data set with P388 leukemia (0.5 mg/kg/day ip) it was 13.0 days; in the data set with P388 leukemia (1 mg/kg/day ip), 14.0 days; in the data set on P388 leukemia (2 mg/kg/day ip), 15.5 days; in the data set with P388 leukemia (4 mg/kg/day ip), 16.5 days; in the data set on L1210 leukemia (0.5 mg/kg/day ip) it was 10.0 days. The “MST (Median survival time)” value in the data set on L1210 leukemia (1 mg/kg/day ip) came out at 10.0 days; with L1210 leukemia (2 mg/kg/day ip), 10.5 days; in the data set with L1210 leukemia (4 mg/kg/day ip), 11.0 days; in the data set with L1210 leukemia (8 mg/kg/day ip) it was 12.5 days; in the data set on B16 melanoma (0.25 mg/kg/day ip) it was 15.5 days; in the data set with B16 melanoma (0.5 mg/kg/day ip), 18.0 days. Further, the “MST (Median survival time)” value with B16 melanoma (1 mg/kg/day ip) is 22.0 days; with B16 melanoma (2 mg/kg/day ip), 27.5 days. Moreover, the T/C was 115% in the data set with P388 leukemia (0.25 mg/kg/day ip); 130*² % in the data set on P388 leukemia (0.5 mg/kg/day ip); 140*² % with P388 leukemia (1 mg/kg/day ip); 155*² % with P388 leukemia (2 mg/kg/day ip); 165*² % with P388 leukemia (4 mg/kg/day ip); 125*² % in the data set on L1210 leukemia (0.5 mg/kg/day ip). Further, the T/C in the data set on L1210 leukemia (1 mg/kg/day ip) is 125*² %; in the data set on L1210 leukemia (2 mg/kg/day ip), 131*² %; in the data set on L1210 leukemia (4 mg/kg/day ip), 138*² %; with L1210 leukemia (8 mg/kg/day ip) it was 156*² %; in the data set on B16 melanoma (0.25 mg/kg/day ip), 119%; in the data set on B16 melanoma (0.5 mg/kg/day ip) it was 138*² %. Further, the results for the T/C in the data set on B16 melanoma (1 mg/kg/day ip) and in the data set on B16 melanoma (2 mg/kg/day ip) were 169*² % and 212*² %, respectively. For the same compound, the “Body weight change on day 5” value in the data set on B16 melanoma (0.25 mg/kg/day ip) was “+0.8 g”; with B16 melanoma (0.5 mg/kg/day ip), “+0.6 g”; with B16 melanoma (1 mg/kg/day ip) it was “+0.8 g”; in the data set with B16 melanoma (2 mg/kg/day ip) it was “+0.5 g”.
For the compound Telomycin, the “activity against Gram-positive organism” value with Gram-positive organism is reported as “active”. In the data set on Gram-negative bacteria, the “effect against most Gram-negative bacteria” value was “little or no effect”.

The values are drawn from patent EP0431323A1, “Antitumor antibiotic BU-3983T” (priority 1989, dated 1991).
